The values that follow come from US20210015793A1, “COMPOUNDS FOR TREATING CNS- AND NEURODEGENERATIVE DISEASES” (ETH ZURICH, priority 2018, published 2021).

The assay deals with Tg2576 AD mice. The experiment in a line: Abeta plaque load by immunohistology (BAM-10) in Tg2576 mice. It is filed as in vivo, mouse. Conditions: 18-month-old Tg2576 mice, 8 mg/kg/d in drinking water for 6 months, vs untreated Tg2576 controls. From the text:
For a genetic model of familial AD (FAD), Tg2576 mice (Taconic Biosciences, Rensselaer, N.Y., USA) were used with neuron-specific overexpression of human APPSwe, i.e the Swedish mutation of APP695 isolated from a Swedish family with FAD featuring the double mutation K670N/M671L (Hsiao et al., Science 274, 99-103 (1996)). As a genetic model of tauopathy, the Tg-TauP301L mice (Model 2508, Taconic Biosciences, Rensselaer, N.Y., USA) with neuron-specific expression of the most common FTDP-17 (frontotemporal dementia and parkinsonism linked to chromosome 17) mutation (Lewis et al., Nature Genetics 25, 402-405 (2000)) were used. To enhance neurodegeneration and neuronal loss, the CUMS (chronic unpredictable mild stress) protocol was performed with male 12 months-old Tg2576 mice for 3 months essentially as described (AbdAlla et al., J. Biol. Chem. 284, 6554-6565 (2009); AbdAlla et al., J. Biol. Chem. 284, 6566-6574 (2009)). […]
For Abeta plaque load quantification by immunohistochemistry, paraffin-embedded brain sections (or cryosections) (8 microm, 10-15 sections/brain taken at 30-50 microm intervals) were prepared from brains isolated from 18-month-old Tg2576 mice (Taconic Biosciences, Rensselaer, N.Y., USA) treated for six months without and with Compound-1 and Compound-4 (8 mg/kg body weight/day in drinking water). […]

In the case of `O=C(C1=C(O)C(c2ccccc2)N(c2ccc3c(c2)OCO3)C1=O)C1CC1` (stereo not shown) [Compound-1, 1-(1,3-benzodioxol-5-yl)-4-(cyclopropane-carbonyl)-3-hydroxy-2-phenyl-2H-pyrrol-5-one], the “Abeta plaque load in hippocampus and frontal cortex” value was “significantly retarded the accumulation of Abeta plaques”.
